# Bridge positions count the residues as written; N and C are the ends. Peptide text beside a SMILES is read from it.
# Experiments:
# L929 cells = details: at >100 µM compound
# TNFα = TNFα (Homo sapiens, UniProt P01375); details: L929 assay; unable to fully rescue because of toxicity at higher concentrations
# TNFα trimer = details: TNFα 10 µM with excess peptide 100 µM, longer pre-incubation
# Chain of TNFα (P01375 77-233 limits assumed): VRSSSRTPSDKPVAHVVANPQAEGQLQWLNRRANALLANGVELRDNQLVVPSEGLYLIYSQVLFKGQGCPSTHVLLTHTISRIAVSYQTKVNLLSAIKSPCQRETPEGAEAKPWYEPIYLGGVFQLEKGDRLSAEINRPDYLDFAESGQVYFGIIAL
SMILES,cell death (L929 cells),maximal rescue of cell viability (TNFα),effect on TNFα trimers (MS) (TNFα trimer)
"CC(C)C[C@H](NC(=O)[C@@H]1CSSC[C@@H]2NC(=O)[C@H](CC(C)C)NC(=O)[C@H](CCC(=O)O)NC(=O)[C@@H](NC(=O)[C@H](CCC(=O)O)NC(=O)[C@H](CC(=O)O)NC(=O)[C@@H](N)CC(N)=O)CSSC[C@H](NC(=O)[C@H](C)NC(=O)[C@H](C(C)C)NC(=O)[C@H](CC(N)=O)NC(=O)[C@H](C(C)C)NC2=O)C(=O)N[C@@H]([C@@H](C)O)C(=O)NCC(=O)N1)C(=O)O [SPD304] (H-NDECELCVNVACTGCL-OH; disulfide 4-12, 7-15)",100%,≤ 73%,
Cc1c2c(C)c3c(C)c1CSC[C@H](NC(=O)[C@@H]1CCCN1C(=O)[C@@H]1CCCN1C(=O)[C@@H](NC(=O)[C@H](C)N)CSC3)C(=O)N[C@@H](CC(C)C)C(=O)N[C@@H](Cc1c[nH]c3ccccc13)C(=O)N[C@@H](CCC(N)=O)C(=O)N[C@@H](C(C)C)C(=O)N[C@@H](CC(C)C)C(=O)N[C@H](C(=O)NCC(=O)NCC(=O)N[C@@H](CO)C(=O)NCC(=O)N[C@@H](CO)C(=O)NCC(=O)N[C@@H](CO)C(=O)NCC(N)=O)CSC2 [M21h],,,converted quantitatively into dimers and monomers

# Source: article PMC4378371, “Subunit disassembly and inhibition of TNFα by a semi-synthetic bicyclic peptide” (Protein Engineering, Design and Selection, 2015)
